Results as given in publication PMC9142583, “Structural basis for broad anti-phage immunity by DISARM” (Nature Communications, 2022).

Columns and labels:
[1] = biological target: T1, DrmAB (Serratia, UniProt A0A979HMQ0); test: cryo-EM structure ([…]-3.[…] A); assay type: binding; details: 1 mM ADP, 10 uM DrmAB; pH 7.4, ~25 C; canonical ATP site between RecA1 and RecA2 of DrmA; also in DNA-bound complex 7S9W
T1 construct: DrmAB heterodimer (~1:1, ~220 kDa) co-expressed in E. coli BL21-AI; Ni-NTA and size exclusion
T1 sequence (A0A979HMQ0 1-1325): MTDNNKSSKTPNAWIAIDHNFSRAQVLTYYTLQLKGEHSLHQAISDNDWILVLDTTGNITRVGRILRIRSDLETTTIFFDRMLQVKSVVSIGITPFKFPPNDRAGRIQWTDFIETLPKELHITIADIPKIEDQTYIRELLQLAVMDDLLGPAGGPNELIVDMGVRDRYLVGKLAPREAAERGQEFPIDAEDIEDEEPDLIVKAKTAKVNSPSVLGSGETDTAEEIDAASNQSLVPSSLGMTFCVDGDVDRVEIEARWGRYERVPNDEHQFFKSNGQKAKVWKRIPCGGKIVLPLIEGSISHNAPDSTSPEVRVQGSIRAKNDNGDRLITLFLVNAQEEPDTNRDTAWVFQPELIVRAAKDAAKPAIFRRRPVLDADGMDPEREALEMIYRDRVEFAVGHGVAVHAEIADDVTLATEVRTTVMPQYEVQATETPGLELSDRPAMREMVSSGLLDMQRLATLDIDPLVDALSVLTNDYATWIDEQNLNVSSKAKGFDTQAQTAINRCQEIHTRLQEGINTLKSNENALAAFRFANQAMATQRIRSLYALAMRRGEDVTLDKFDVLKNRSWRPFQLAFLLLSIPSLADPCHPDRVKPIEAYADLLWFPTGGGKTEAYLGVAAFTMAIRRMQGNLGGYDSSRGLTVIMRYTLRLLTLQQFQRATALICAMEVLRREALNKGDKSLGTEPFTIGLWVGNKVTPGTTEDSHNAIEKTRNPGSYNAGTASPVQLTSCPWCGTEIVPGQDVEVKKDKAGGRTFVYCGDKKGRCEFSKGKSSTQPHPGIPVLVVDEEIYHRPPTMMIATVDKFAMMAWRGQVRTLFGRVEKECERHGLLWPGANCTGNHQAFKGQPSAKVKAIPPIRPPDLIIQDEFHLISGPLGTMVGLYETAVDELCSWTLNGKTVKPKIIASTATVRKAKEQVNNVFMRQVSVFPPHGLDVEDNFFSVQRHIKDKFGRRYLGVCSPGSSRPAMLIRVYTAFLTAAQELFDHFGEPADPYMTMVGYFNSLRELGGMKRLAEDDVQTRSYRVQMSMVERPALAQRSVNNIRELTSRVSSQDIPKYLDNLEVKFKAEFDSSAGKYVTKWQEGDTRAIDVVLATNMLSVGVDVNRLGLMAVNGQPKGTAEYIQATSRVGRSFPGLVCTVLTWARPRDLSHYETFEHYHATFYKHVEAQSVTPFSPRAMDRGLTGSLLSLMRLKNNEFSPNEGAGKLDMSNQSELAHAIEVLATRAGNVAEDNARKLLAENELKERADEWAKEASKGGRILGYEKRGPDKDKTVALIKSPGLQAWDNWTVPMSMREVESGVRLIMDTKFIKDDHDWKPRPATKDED
T1 sequence (A0A979HMQ1 1-619 partner): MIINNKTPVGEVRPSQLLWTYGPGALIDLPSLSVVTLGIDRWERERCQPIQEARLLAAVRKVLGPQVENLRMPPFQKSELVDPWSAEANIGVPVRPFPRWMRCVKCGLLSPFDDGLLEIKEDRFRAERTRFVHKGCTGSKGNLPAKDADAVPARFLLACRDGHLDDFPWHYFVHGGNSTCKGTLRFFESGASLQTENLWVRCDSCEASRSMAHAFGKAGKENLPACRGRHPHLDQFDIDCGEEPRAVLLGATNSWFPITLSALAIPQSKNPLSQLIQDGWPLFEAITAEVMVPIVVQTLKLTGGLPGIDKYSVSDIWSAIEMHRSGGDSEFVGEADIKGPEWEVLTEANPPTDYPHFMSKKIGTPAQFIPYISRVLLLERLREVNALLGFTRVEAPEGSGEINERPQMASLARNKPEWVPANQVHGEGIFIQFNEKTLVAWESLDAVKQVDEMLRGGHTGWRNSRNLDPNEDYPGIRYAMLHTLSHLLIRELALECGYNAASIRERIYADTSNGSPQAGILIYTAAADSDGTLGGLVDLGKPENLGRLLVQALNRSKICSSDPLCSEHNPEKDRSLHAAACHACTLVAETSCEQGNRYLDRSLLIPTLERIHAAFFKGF

[2] = biological target: T1, DrmAB; test: ATPase assay, absorbance at […] nm; assay type: biochemical; details: needs unmethylated DNA stem loop; mere turnover
[3] = biological target: DrmB (Serratia sp. SCBI DISARM DUF1998-containing protein) (Serratia sp. SCBI); test: co-purification (Ni-NTA, then SEC); proteins co-expressed in E. coli BL21-AI; His6-DrmB captured on Ni-NTA (25 mM HEPES pH 8, 600 mM NaCl), then HiLoad 16/600 Superdex 200 (25 mM HEPES pH 8, 150 mM NaCl, 5% glycerol, 1 mM DTT), 4 °C; fractions checked by SDS-PAGE

Nc1ncnc2c1ncn2[C@@H]1O[C@H](COP(=O)(O)OP(=O)(O)O)[C@@H](O)[C@H]1O [ADP]
cryo-EM structure (3.3-3.4 A) [1]: We observed strong density corresponding to ADP within our DNA-bound (Fig. 2e) and DNA-free maps

Nc1ncnc2c1ncn2[C@@H]1O[C@H](COP(=O)(O)OP(=O)(O)OP(=O)(O)O)[C@@H](O)[C@H]1O [ATP]
ATPase assay, absorbance at 360 nm [2]: Robust ATPase activity is strongly stimulated by unmethylated DNA

DrmA (Serratia sp. SCBI DISARM helicase) (natural protein)
stoichiometry N [3]: 1
